Experimental data from patent US20150141340A1, “METHOD OF TREATING AND PREVENTING OCULAR ANGIOGENESIS” (Yale University, priority 2012, published 2015).

Tests used:
[1] = tested on: ischemia triggered neovascularization; assay: Retinopathy of prematurity model (ROP); assay type: in vivo, mouse; conditions: administration 2 days after switching from hyperoxia to room air; vs AP injected eyes
Description: Next, cavtratin was tested in an additional model of ocular angiogenesis, retinopathy of prematurity model (ROP). Exposure to hyperoxia during early retinal development leads to the arrest or retardation of normal retinal vascular development. When the animals are returned to the normoxic environment, they are under a relative hypoxic situation where the retina now lacks its normal vasculature that is required to adequately support the neural tissue in normoxic conditions. This ischemic situation results in unregulated, abnormal neovascularization. The neovascular response is very consistent, reproducible and quantifiable, and it has become integral model for studying disease mechanisms and potential treatments for ischemic retinopathy. The mouse ROP model has become the most common model for studying pathologic angiogenesis and has been extended to the general study of ischemic retinopathies and related anti-angiogenic treatments. […] Cavtratin induced attenuation of ischemia triggered neovascularization is shown in FIG. 8, where the left panels are representative of two AP injected eyes and right panels are from cavtratin injections.

[2] = tested on: choroidal neovascularization (CNV); assay: Laser-induced choroidal neovascularization (CNV) model, isolectin b4 labeling; assay type: in vivo, mice
Description: Experiments were designed to examine whether treatment with cavtratin is useful in disease models of excessive ocular angiogenesis. To induce choroidal neovascularization (CNV), a model for retinal angiogenesis in mice, three 532 nm diode laser spots were applied to each fundus of the eye using a coverslip as a contact lens. The lesions were placed between the retinal vessels 2-3 disc diameters from the optic nerve. Formation of a bubble indicates rupture of the Bruch's membrane, a critical factor in driving CNV. Cavtratin was dissolved into acetic acid and diluted into saline. […] After treatment and injury, CNV was visualized by immunofluorescent labeling with isolectin b4, a marker for angiogenic blood vessels. CNV area was quantified as isolectin positive vessels per area measured.
Since mechanistically cavtratin reduces vascular permeability, vascular leakage was examined after CNV damage.
Further, it was examined whether the effects of cavtratin treatment synergizes with anti-VEGF. Mice were injected with either cavtratin (0.05 nmol) one day prior to laser damage, anti-VEGF (5 μg) 2 days after damage, or were treated with both cavtratin and anti-VEGF.

Substance: cavtratin: fusion peptide comprising an antennapedia homeodomain internalization sequence fused to a caveolin-1 scaffolding domain; SEQ ID NO: 13 (RQIKIWFQNRRMKWKKDGIWKASFTTFTVTKYWFYR; Antennapedia-caveolin-1 scaffolding domain fusion peptide)
- ischemia triggered neovascularization [1]: attenuation of extensive, ischemia triggered neovascualization
- CNV area (isolectin positive vessels per area measured) ([2]; 0.5 nmol intraocular (1 microliter) prior to laser damage and again 2 days after, sacrificed after 4 additional days, vs AP control, N=17-18 eyes, P<0.05): reduced CNV
- CNV, dose dependence ([2]; anti-VEGF administration as comparator (FIG. 3, FIG. 4), reduced to a level comparable to anti-VEGF): dose-dependently reduces CNV
